“And” between values parts separate entries of the source, which are not always exact repeats. Identical values can stand only once. Inconclusive results are not listed.
Test system: MX-1 breast xenograft, nude mice, tumor weight T/C
Assay: NCI In Vivo Anticancer Drug Screen. Data for tumor model Human Mammary Carcinoma MX-1 Xenograft (intrarenal inoculation) in NU/NU Swiss (nude) mice
Details: endpoint: mean tumor weight change, higher = larger tumour
Method in brief: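 Read-out: treated (T) over vehicle control (C) ratio of survival or tumor size. Dosing in animals carrying the transplanted tumor.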

[1] = dose: 3.13 mg/kg/injection, schedule: Q01DX010 (sc), vehicle: saline
[2] = dose: 50.0 mg/kg/injection, schedule: Q04DX003 (sc), vehicle: Klucel (hydroxypropylcellulose) (HPC)
[3] = dose: 100.0 mg/kg/injection, schedule: Q04DX003 (sc), vehicle: Klucel (hydroxypropylcellulose) (HPC)
[4] = dose: 200.0 mg/kg/injection, schedule: Q04DX003 (sc), vehicle: Klucel (hydroxypropylcellulose) (HPC)
[5] = dose: 300.0 mg/kg/injection, schedule: Q04DX003 (sc), vehicle: Klucel (hydroxypropylcellulose) (HPC)
[6] = dose: 600.0 mg/kg/injection, schedule: Q04DX003 (sc), vehicle: Klucel (hydroxypropylcellulose) (HPC)
[7] = dose: 1200.0 mg/kg/injection, schedule: Q04DX003 (sc), vehicle: Klucel (hydroxypropylcellulose) (HPC)
[8] = dose: 800.0 mg/kg/injection, schedule: Q04DX003 (sc), vehicle: suspension in saline
[9] = dose: 300.0 mg/kg/injection, schedule: Q04DX003 (sc), vehicle: saline with Tween-80
[10] = dose: 600.0 mg/kg/injection, schedule: Q04DX003 (sc), vehicle: saline with Tween-80
[11] = dose: 1200.0 mg/kg/injection, schedule: Q04DX003 (sc), vehicle: saline with Tween-80
[12] = dose: 2400.0 mg/kg/injection, schedule: Q04DX003 (sc), vehicle: saline with Tween-80
[13] = dose: 2400.0 mg/kg/injection, schedule: Q04DX003 (sc), vehicle: Klucel (hydroxypropylcellulose) (HPC)
[14] = dose: 25.0 mg/kg/injection, schedule: Q01DX010 (sc), vehicle: saline
[15] = dose: 200.0 mg/kg/injection, schedule: Q04DX003 (sc), vehicle: suspension in saline
[16] = dose: 400.0 mg/kg/injection, schedule: Q04DX003 (sc), vehicle: suspension in saline
[17] = dose: 6.25 mg/kg/injection, schedule: Q01DX010 (sc), vehicle: saline

## CCOC(=O)NC1=C(N2CC2)C(=O)C(NC(=O)OCC)=C(N2CC2)C1=O
dose: 1.56 mg/kg/injection, schedule: Q01DX010 (sc), vehicle: saline
  T/C: 1 % of control
[1]
  T/C: 3 % of control
dose: 3.13 mg/kg/injection, schedule: Q04DX003 (ip), vehicle: suspension in saline
  T/C: 41 % of control
dose: 6.25 mg/kg/injection, schedule: Q04DX003 (ip), vehicle: suspension in saline
  T/C: -44 % of control
dose: 12.5 mg/kg/injection, schedule: Q04DX003 (ip), vehicle: suspension in saline
  T/C: -100 % of control

## N#Cc1nc(C#N)c(Sc2ccccc2)c(Sc2ccccc2)c1Sc1ccccc1
dose: 25.0 mg/kg/injection, schedule: Q01DX010 (sc), vehicle: saline with Tween-80
  T/C: 57 % of control
dose: 100.0 mg/kg/injection, schedule: Q01DX010 (sc), vehicle: saline with Tween-80
  T/C: 24 % of control
dose: 200.0 mg/kg/injection, schedule: Q01DX010 (sc), vehicle: saline with Tween-80
  T/C: 80 % of control

## C[C@]12CCC(=O)C(O)=C1CC[C@@H]1[C@@H]2CC[C@]2(C)C(=O)CC[C@@H]12
dose: 35.0 mg/kg/injection, schedule: Q01DX010 (sc), vehicle: Klucel (hydroxypropylcellulose) (HPC)
  T/C: 223 % of control
dose: 70.0 mg/kg/injection, schedule: Q01DX010 (sc), vehicle: Klucel (hydroxypropylcellulose) (HPC)
  T/C: 112 % of control
dose: 280.0 mg/kg/injection, schedule: Q01DX010 (sc), vehicle: Klucel (hydroxypropylcellulose) (HPC)
  T/C: 88 % of control

## COC1C(N)C(OC2C(Oc3cccc4c(O)c5c(=O)oc6ccc(C)c7c(=O)oc(c34)c5c67)OC(C)C(O)C2(C)O)OC(C)C1O (centres undefined)
dose: 2.5 mg/kg/injection, schedule: Q04DX003 (ip), vehicle: lactic acid
  T/C: 51 % of control
dose: 5.0 mg/kg/injection, schedule: Q04DX003 (ip), vehicle: lactic acid
  T/C: 49 % of control
dose: 10.0 mg/kg/injection, schedule: Q04DX003 (ip), vehicle: lactic acid
  T/C: 9 % of control

## O=C(C#Cc1ccccc1)c1ccccc1
[2]
  T/C: 76 % of control
[3]
  T/C: 113 % of control
[4]
  T/C: 87 % of control
[5]
  T/C: 87 % of control
dose: 400.0 mg/kg/injection, schedule: Q04DX003 (sc), vehicle: Klucel (hydroxypropylcellulose) (HPC)
  T/C: 42 % of control
[6]
  T/C: 110 % of control
[7]
  T/C: 104 % of control

## COC1=C(N)C(=O)c2nc(-c3nc(C(=O)O)c(C)c(-c4ccc(OC)c(OC)c4O)c3N)ccc2C1=O
dose: 0.13 mg/kg/injection, schedule: Q01DX010 (sc), vehicle: saline
  T/C: 15 % of control and 18 % of control
dose: 0.5 mg/kg/injection, schedule: Q01DX010 (sc), vehicle: saline
  T/C: -77 % of control and -75 % of control

## O=C(O)C(CSC(c1ccccc1)(c1ccccc1)c1ccccc1)N=Cc1cccs1 (centres undefined)
[8]
  T/C: 67 % of control

## CC(C#N)(C#N)N=Nc1ccc(Cl)cc1Cl
[9]
  T/C: 94 % of control
[10]
  T/C: 94 % of control
[11]
  T/C: 98 % of control
[12]
  T/C: 92 % of control

## O=C(O)c1cc(Cc2ccc(O)c(C(=O)O)c2)ccc1O (tested in a mixture with another compound)
dose: 75.0 mg/kg/injection, schedule: Q04DX003 (sc), vehicle: Klucel (hydroxypropylcellulose) (HPC)
  T/C: 63 % of control
dose: 150.0 mg/kg/injection, schedule: Q04DX003 (sc), vehicle: Klucel (hydroxypropylcellulose) (HPC)
  T/C: 55 % of control
[5]
  T/C: 93 % of control
[6]
  T/C: 76 % of control

## Cc1cc(Nc2ccc3c(c2)OCO3)c2cc3c(cc2n1)OCO3
[5]
  T/C: 61 % of control
[6]
  T/C: 81 % of control
[7]
  T/C: 81 % of control
[13]
  T/C: 92 % of control

## O=C(Nc1nncs1)c1ccncc1
dose: 150.0 mg/kg/injection, schedule: Q04DX003 (sc), vehicle: saline with Tween-80
  T/C: 101 % of control
[10]
  T/C: 109 % of control
[11]
  T/C: 65 % of control

## Nc1nc(-c2ccccc2)c(Br)c(=O)[nH]1
[9]
  T/C: 96 % of control
[10]
  T/C: 93 % of control
[11]
  T/C: 109 % of control
[12]
  T/C: 65 % of control

## Nc1cc2[nH]cnc2c(=O)[nH]1
[14]
  T/C: 46 % of control
dose: 50.0 mg/kg/injection, schedule: Q01DX010 (sc), vehicle: saline
  T/C: -36 % of control
dose: 50.0 mg/kg/injection, schedule: Q01DX010 (sc), vehicle: suspension in saline
  T/C: 9 % of control
dose: 50.0 mg/kg/injection, schedule: Q04DX003 (sc), vehicle: suspension in saline
  T/C: 95 % of control
dose: 100.0 mg/kg/injection, schedule: Q01DX010 (sc), vehicle: saline
  T/C: -25 % of control and -11 % of control
dose: 100.0 mg/kg/injection, schedule: Q01DX010 (sc), vehicle: suspension in saline
  T/C: -28 % of control
dose: 100.0 mg/kg/injection, schedule: Q04DX003 (sc), vehicle: suspension in saline
  T/C: 83 % of control and 100 % of control
dose: 200.0 mg/kg/injection, schedule: Q01DX010 (sc), vehicle: saline
  T/C: -31 % of control
dose: 200.0 mg/kg/injection, schedule: Q01DX010 (sc), vehicle: suspension in saline
  T/C: -89 % of control
[15]
  T/C: 8 % of control and 31 % of control
[16]
  T/C: 12 % of control and 18 % of control
[8]
  T/C: 8 % of control

## Oc1c(Cl)cc(C(c2cc(Cl)c(O)c(Cl)c2)C(c2cc(Cl)c(O)c(Cl)c2)c2cc(Cl)c(O)c(Cl)c2)cc1Cl
[5]
  T/C: 108 % of control
[6]
  T/C: 79 % of control
[7]
  T/C: 73 % of control
[13]
  T/C: 88 % of control

## N=[N+]=CC(=O)OCC(N)C(=O)O (centres undefined)
[1]
  T/C: -57 % of control and -53 % of control
[17]
  T/C: -69 % of control and -54 % of control
dose: 12.5 mg/kg/injection, schedule: Q01DX010 (sc), vehicle: saline
  T/C: -81 % of control and -71 % of control
[14]
  T/C: -80 % of control

## CC1=C[S+](c2ccccc2)c2cccc3cc4ccccc4c1c23 (centres undefined)
dose: 8.0 mg/kg/injection, schedule: Q04DX003 (sc), vehicle: saline with Tween-80
  T/C: 69 % of control
dose: 16.0 mg/kg/injection, schedule: Q04DX003 (sc), vehicle: saline with Tween-80
  T/C: 75 % of control

## CSc1cc(C)[o+]c(C)c1
dose: 25.0 mg/kg/injection, schedule: Q04DX003 (sc), vehicle: Klucel (hydroxypropylcellulose) (HPC)
  T/C: 76 % of control
[2]
  T/C: 68 % of control
[3]
  T/C: 54 % of control
[4]
  T/C: 36 % of control

## CCOC(=O)C1=C(C#N)C2(CCC(OCc3ccccc3)CC2)C(=O)O1 (centres undefined)
[15]
  T/C: 81 % of control
[16]
  T/C: 119 % of control
[8]
  T/C: 52 % of control
dose: 1600.0 mg/kg/injection, schedule: Q04DX003 (sc), vehicle: suspension in saline
  T/C: 62 % of control

## Nc1cccc(=O)[nH]1
dose: 300.0 mg/kg/injection, schedule: Q04DX003 (sc), vehicle: saline
  T/C: 92 % of control
dose: 600.0 mg/kg/injection, schedule: Q04DX003 (sc), vehicle: saline
  T/C: 95 % of control
dose: 1200.0 mg/kg/injection, schedule: Q04DX003 (sc), vehicle: saline
  T/C: 102 % of control

## COc1cc(C2c3cc4c(cc3C(O)C(CO)C2CO)OCO4)cc(OC)c1OC (centres undefined)
dose: 100.0 mg/kg/injection, schedule: Q04DX003 (sc), vehicle: saline with Tween-80
  T/C: 109 % of control
dose: 200.0 mg/kg/injection, schedule: Q04DX003 (sc), vehicle: saline with Tween-80
  T/C: 97 % of control
dose: 400.0 mg/kg/injection, schedule: Q04DX003 (sc), vehicle: saline with Tween-80
  T/C: 106 % of control
dose: 800.0 mg/kg/injection, schedule: Q04DX003 (sc), vehicle: saline with Tween-80
  T/C: 86 % of control

## Nc1nncs1
[1]
  T/C: 92 % of control
[17]
  T/C: 99 % of control
[14]
  T/C: 86 % of control

## CCOc1cc2c(cc1C(C)c1ccc(OC)cc1)OCO2 (centres undefined)
dose: 150.0 mg/kg/injection, schedule: Q04DX003 (sc), vehicle: distilled water + alcohol
  T/C: 43 % of control
dose: 300.0 mg/kg/injection, schedule: Q04DX003 (sc), vehicle: distilled water + alcohol
  T/C: 31 % of control
dose: 600.0 mg/kg/injection, schedule: Q04DX003 (sc), vehicle: distilled water + alcohol
  T/C: 19 % of control
dose: 1200.0 mg/kg/injection, schedule: Q04DX003 (sc), vehicle: distilled water + alcohol
  T/C: 52 % of control

## ClCCCN1CCN(CCCCl)CC1
dose: 75.0 mg/kg/injection, schedule: Q04DX003 (sc), vehicle: saline + alcohol
  T/C: 113 % of control
dose: 150.0 mg/kg/injection, schedule: Q04DX003 (sc), vehicle: saline + alcohol
  T/C: 28 % of control
